Source: patent EP4778519A1, “THERAPEUTIC OR PROPHYLACTIC AGENT FOR FRONTOTEMPORAL LOBAR DEGENERATION ACCOMPANIED BY ACCUMULATION OF TDP-43 (FTLD-TDP)” (Socium Inc., priority 2023, dated 2025)
“Also recorded” adds a separate entry of the source. Where two headings read alike, the source gives them in different places.

Key:
TDP-43 [1] = experiment: Soluble and insoluble fractions of TDP-43 in motor neurons derived from iPS cells of healthy subjects, Western blot (Example 3); type: cell-based, human; details: 10 µmol/L, cultured for 20 days, Figure 7
Experimental: 100 µL of an EHS-gel basement membrane matrix (commercially available from FUJIFILM Wako Pure Chemical Corporation) was added to 12.5 mL of DMEM (Dulbecco's Modified Eagle Medium, commercially available from FUJIFILM Wako Pure Chemical Corporation) and mixed, and the mixture was added to a 24-well plate at 600 µL per well. The plate was left at room temperature for 2 hours, and the solution was then removed from the wells. Next, 600 µL of DMEM was added to each well, and the plate was left at room temperature for 2 hours.
Motor neurons derived from iPS cells of healthy subjects and motor neurons derived from iPS cells of ALS patients were obtained from iXCells Biotechnologies. The motor neurons were quickly thawed in a thermostatic oven at 37°C and suspended in a motor neuron maintenance culture medium (iXCells Biotechnologies). […]
The soluble protein fractions and the insoluble protein fractions were subjected to SDS-PAGE, and the proteins were transferred to a PVDF membrane. […] Next, the PVDF membrane was washed three times with a buffer solution, 1 mL of a luminescence reagent (ImmunoStar LD, commercially available from FUJIFILM Wako Pure Chemical Corporation) was then used to induce luminescence from the labeled secondary antibodies, and the PVDF membrane was imaged.

[2] = cited from earlier work
[3] = Reported human pharmacokinetics of D-cycloserine (literature); type: in vivo, humans; details: estimated; 15 mg orally administered twice daily
TDP-43 [4] = experiment: Soluble and insoluble fractions of TDP-43 in TDP-43-transfected Neuro2a cells, Western blot (Example 2); type: cell-based, Mouse; details: 10 µmol/L added 6 hours after transfection, cultured for 12 hours; for soluble fractions versus insoluble fractions of TDP-43: Figure 5; for proportion of insoluble fractions based on a total number of soluble fractions and insoluble fractions of TDP-43: Figure 6
Experimental: (§1) Mouse neuroblastoma (Neuro2a) cells were seeded on a dish. The Neuro2a cells were cultured in a culture medium containing DMEM+10% FBS at 37°C in the presence of 5% CO2. On the first day after seeding, differentiation into neurons was initiated. Differentiation into neurons was performed in a culture medium containing DMEM+2% FBS+20 µmol/L retinoic acid. On the fourth day after seeding, cells were transfected with synthesized TDP-43 mRNA by a lipofection method. Cells were sampled at 6 hours, 9 hours, 12 hours, 15 hours, 18 hours, and 21 hours after transfection. […] For sampling, cells were lysed in an RIPA buffer and centrifuged at 22,000xg for 30 minutes at 4°C, the supernatant was used as the soluble fraction, the precipitate was used as the insoluble fraction, and equal volumes of a 2×SDS sample buffer were added to the respective fractions and heated at 95°C for 5 minutes to prepare electrophoresis samples. The electrophoresis samples were subjected to electrophoresis using a polyacrylamide gel, TDP-43 was then transferred to a PVDF membrane. TDP-43 was detected through chemiluminescence using anti-TDP-43 antibodies as primary antibodies and HRP-conjugated anti-rabbit antibodies as secondary antibodies. […] The insoluble fractions of TDP-43 indicate the aggregation of TDP-43.
Neuro2a cells were seeded on a dish. On the first day after seeding, differentiation into neurons was initiated. On the fourth day after seeding, cells were transfected with the TDP-43 gene.

TDP-43 [5] = experiment: Soluble and insoluble fractions of TDP-43 in motor neurons derived from iPS cells of ALS patients, Western blot (Example 3); type: cell-based, human; details: 10 µmol/L, cultured for 20 days; for bands for insoluble fractions of TDP-43: Figure 7; for average proportion of insoluble fractions of TDP-43: three experiments, Figure 8
[6] = tested on: Neuro2a cells transfected with the TDP-43 gene; experiment: Inhibition of cell death in neuron-differentiated Neuro2a cells transfected with the TDP-43 gene (Example 1); type: cell-based, Mouse; details: evaluated 7 days after transfection, Figures 3 and 4
Experimental: as §1, with “TDP-43. […]” for “TDP-43.”
The proportion of dead cells was evaluated 7 days after the cells were transfected with the TDP-43 gene.

[7] = cited from earlier work; remark: listed apart in the source

Row | Compound | bands for insoluble fractions of TDP-43 (TDP-43 [1]) | Cmax ([2]; 15 mg orally administered to humans, read-out: maximum blood concentration (Cmax)) [µM] | half-life ([2]; in vivo) | trough value [3] [nmol/L] | soluble fractions versus insoluble fractions of TDP-43 (TDP-43 [4]) | proportion of insoluble fractions based on a total number of soluble fractions and insoluble fractions of TDP-43 (TDP-43 [4]) | bands for insoluble fractions of TDP-43 (TDP-43 [5]) | average proportion of insoluble fractions of TDP-43 (TDP-43 [5]) | effect of inhibiting cell death [6] | side effects ([7]; 150 mg administered to humans) | side effects ([7]; 250 mg administered to humans to treat tuberculosis)
1 | N[C@@H]1CONC1=O [D-cycloserine, (4R)-4-Amino-1,2-oxazolidin-3-one] | bands for insoluble fractions were unclear | ~5.6 | about 10 hours | > 128 | the number of soluble fractions of TDP-43 was larger than the number of insoluble fractions of TDP-43 | less than half | bands for insoluble fractions were unclear | about 17.4% | cell death was inhibited; also recorded: exhibited an effect of inhibiting cell death in a concentration-dependent manner | headaches | serious side effects such as epileptiform seizure and mental confusion
2 | CCCN(CCC)CCc1cccc2c1CC(=O)N2 [ropinirole] | bands for insoluble fractions were unclear |  |  |  |  |  | bands for insoluble fractions were unclear | about 19.3% |  |  | 
3 | N[C@H]1CONC1=O [L-cycloserine, (4S)-4-amino-1,2-oxazolidin-3-one] |  |  |  |  | the number of soluble fractions of TDP-43 was larger than the number of insoluble fractions of TDP-43 | less than half |  |  | exhibited an effect of inhibiting cell death in a concentration-dependent manner |  | 
